Measurements published in patent publication US20260070899A1, “N-(2-(4-CYANOTHIAZOLIDIN-3-YL)-2-OXOETHYL)-QUINOLINE-4-CARBOXAMIDES” (AstraZeneca AB, priority 2022, published 2026).
pIC50, pKd: −log10 of the molar value.

Assays:
[1] = target: T1, Prolyl endopeptidase, Prolyl Oligopeptidase (hPREP) (Homo sapiens, UniProt P48147); assay: biochemical
T1 sequence (P48147 1-710): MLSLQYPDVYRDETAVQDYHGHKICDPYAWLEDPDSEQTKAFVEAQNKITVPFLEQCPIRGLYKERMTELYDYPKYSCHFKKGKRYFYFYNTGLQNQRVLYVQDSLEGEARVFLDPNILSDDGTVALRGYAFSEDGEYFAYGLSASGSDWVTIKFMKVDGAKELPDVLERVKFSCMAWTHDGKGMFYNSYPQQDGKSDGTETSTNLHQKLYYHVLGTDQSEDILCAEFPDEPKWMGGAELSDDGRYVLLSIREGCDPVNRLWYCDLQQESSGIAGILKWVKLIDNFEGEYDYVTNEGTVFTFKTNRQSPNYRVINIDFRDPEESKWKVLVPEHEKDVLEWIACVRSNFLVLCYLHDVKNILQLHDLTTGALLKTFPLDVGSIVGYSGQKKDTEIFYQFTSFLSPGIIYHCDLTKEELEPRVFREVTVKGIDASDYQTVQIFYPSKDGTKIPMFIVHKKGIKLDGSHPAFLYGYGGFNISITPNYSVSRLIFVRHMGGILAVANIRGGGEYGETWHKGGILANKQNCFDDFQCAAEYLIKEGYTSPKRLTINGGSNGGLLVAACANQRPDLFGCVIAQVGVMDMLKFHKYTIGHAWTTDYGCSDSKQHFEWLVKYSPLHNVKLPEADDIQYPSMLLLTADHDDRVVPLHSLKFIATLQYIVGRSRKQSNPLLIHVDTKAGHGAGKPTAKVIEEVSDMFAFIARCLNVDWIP
Procedure: Compounds were tested in a biochemical inhibition assay using Prolyl endopeptidase, Prolyl Oligopeptidase (hPREP) enzyme at 0.6 nM FAC (R&D Systems, 4308-SE) and the substrate Z-Gly-Pro-amino-methylcoumarin (Bachem, I-1145) at 50 μM FAC. 384 Low volume black plates (Greiner #784076) were used. […] Plates were incubated for 15 min at rt in dark. 4 μL, 100 μM substrate solution (25 mM Tris HCl, 250 mM NaCl, 0.01% Triton X-100, 5 mM Glutathione, pH 7.5) was added to each well. Plates were centrifuged at 1000 rpm and incubated for 20 min at rt in dark. The plates were read on a PHERAstar® reader with excitation 340 nm and emission 460 nm. Data were analyzed in Genedata Screener®. IC50 values were determined by plotting % inhibition versus log compound concentration and using a one site dose response model.

hFAP (M39-A757) = target: T2, hFAP (M39-A757) (Homo sapiens, UniProt Q12884); assay: biochemical;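 further: surface plasmon resonance direct binding to hFAP amine-coupled on a sensor chip, rising compound concentrations by single cycle kinetics, Kd from global fit of interaction models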
T2 sequence (Q12884 39-757): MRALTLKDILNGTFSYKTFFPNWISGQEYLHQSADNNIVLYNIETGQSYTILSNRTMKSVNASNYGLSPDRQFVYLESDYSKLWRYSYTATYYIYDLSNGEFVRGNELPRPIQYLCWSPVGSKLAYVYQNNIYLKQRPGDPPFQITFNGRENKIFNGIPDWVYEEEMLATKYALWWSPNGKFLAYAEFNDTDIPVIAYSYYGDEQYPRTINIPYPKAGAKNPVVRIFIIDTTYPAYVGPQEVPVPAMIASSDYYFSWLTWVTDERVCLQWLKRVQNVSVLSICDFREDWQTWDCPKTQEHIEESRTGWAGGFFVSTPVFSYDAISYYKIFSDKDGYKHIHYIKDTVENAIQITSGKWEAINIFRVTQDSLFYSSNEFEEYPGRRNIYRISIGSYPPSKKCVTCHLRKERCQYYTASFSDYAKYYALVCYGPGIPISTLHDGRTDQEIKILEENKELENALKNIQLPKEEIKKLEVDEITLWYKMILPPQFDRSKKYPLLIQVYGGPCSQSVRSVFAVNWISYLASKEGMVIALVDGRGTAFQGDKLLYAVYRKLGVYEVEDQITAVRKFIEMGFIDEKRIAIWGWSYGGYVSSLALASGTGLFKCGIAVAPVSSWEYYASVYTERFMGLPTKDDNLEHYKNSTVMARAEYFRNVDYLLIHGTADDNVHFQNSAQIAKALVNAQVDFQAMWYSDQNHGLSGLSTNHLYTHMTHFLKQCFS
Procedure: Compounds were tested in a direct binding assay using 8K surface plasmon resonance biosensor (GE Healthcare) at 20° C. Immobilization of hFAP (M39-A757) on a CMD200M sensor chip (Xantec) was performed using standard amine coupling procedure in immobilization buffer (10 mM HEPES, 150 mM NaCl, 0.05% Tween20, pH 7.4). The surface was washed with 10 mM aq NaOH, 1M NaCl before being activated with EDC/NHS (GE Healthcare), followed by immobilization of hFAP (in 10 mM Acetate pH 5.0). Finally, the surface was deactivated by ethanolamine. Immobilization levels of hFAP were around 4000-6000 RU. The reference spot was treated as described, omitting the injection of hFAP. Compound concentration series were injected over the immobilized protein in increasing concentrations (2-500 nM) using single cycle kinetics in running buffer (20 mM TRIS, 150 mM NaCl, 0.05% Tween20, 1% DMSO, pH 7.4). Interaction models were fitted globally to the experimental traces, enabling determination of kon, koff and Kd.

pIC50 [1]	pKd (hFAP (M39-A757))	SMILES
6.06	–	CC1(C)CC(Oc2ccc3nccc(C(=O)NCC(=O)N4CSC[C@H]4C#N)c3c2)CCO1 (mixture of isomers) [Example 9, N-(2-((R)-4-Cyanothiazolidin-3-yl)-2-oxoethyl)-6-(((RS)-2,2-dimethyltetrahydro-2H-pyran-4-yl)oxy)quinoline-4-carboxamide]
6.96	9.72	CC(c1ccc2nccc(C(=O)NCC(=O)N3CSC[C@H]3C#N)c2c1)c1ncccc1F (mixture of isomers) [Example 12, N-(2-((R)-4-Cyanothiazolidin-3-yl)-2-oxoethyl)-6-((RS)-1-(3-fluoropyridin-2-yl)ethyl)quinoline-4-carboxamide]
6.34	–	N#C[C@@H]1CSCN1C(=O)CNC(=O)c1ccnc2ccc(COC3CCOC3)cc12 (mixture of isomers) [Example 35, N-(2-((R)-4-Cyanothiazolidin-3-yl)-2-oxoethyl)-6-((((RS)-tetrahydrofuran-3-yl)oxy)methyl)quinoline-4-carboxamide]
7.10	9.89	Cc1cc(C(C)c2ccc3nccc(C(=O)NCC(=O)N4CSC[C@H]4C#N)c3c2)no1 (mixture of isomers) [Example 46, N-(2-((R)-4-Cyanothiazolidin-3-yl)-2-oxoethyl)-6-((RS)-1-(5-methylisoxazol-3-yl)ethyl)quinoline-4-carboxamide]
6.68	10.04	N#C[C@@H]1CSCN1C(=O)CNC(=O)c1ccnc2ccc(CC3CCOC3)cc12 (mixture of isomers) [Example 65, N-(2-((R)-4-Cyanothiazolidin-3-yl)-2-oxoethyl)-6-(((RS)-tetrahydrofuran-3-yl)methyl)quinoline-4-carboxamide]
6.21	–	N#C[C@@H]1CSCN1C(=O)CNC(=O)c1ccnc2ccc([C@H]3CC[C@H](C#N)CC3)cc12 (single isomer, unassigned) [Example 54, 6-((1r,4R*)-4-Cyanocyclohexyl)-N-(2-((R)-4-cyanothiazolidin-3-yl)-2-oxoethyl)quinoline-4-carboxamide]
6.48	–	N#C[C@@H]1CSCN1C(=O)CNC(=O)c1ccnc2ccc([C@H]3CC[C@H](C#N)CC3)cc12 (single isomer, unassigned) [Example 55, 6-((1r,4R*)-4-Cyanocyclohexyl)-N-(2-((R)-4-cyanothiazolidin-3-yl)-2-oxoethyl)quinoline-4-carboxamide]
6.28	9.96	CO[C@H]1C[C@](F)(c2ccc3nccc(C(=O)NCC(=O)N4CSC[C@H]4C#N)c3c2)C1 (single isomer, unassigned) [Example 62, N-(2-((R)-4-Cyanothiazolidin-3-yl)-2-oxoethyl)-6-((1r,3R*)-1-fluoro-3-methoxycyclobutyl)quinoline-4-carboxamide]
6.48	10.01	CO[C@H]1C[C@](F)(c2ccc3nccc(C(=O)NCC(=O)N4CSC[C@H]4C#N)c3c2)C1 (single isomer, unassigned) [Example 63, N-(2-((R)-4-Cyanothiazolidin-3-yl)-2-oxoethyl)-6-((1r,3R*)-1-fluoro-3-methoxycyclobutyl)quinoline-4-carboxamide]
6.21	–	CO[C@H]1CC[C@@H](c2ccc3nccc(C(=O)NCC(=O)N4CSC[C@H]4C#N)c3c2)CC1 (single isomer, unassigned) [Example 79, N-(2-((R)-4-Cyanothiazolidin-3-yl)-2-oxoethyl)-6-((1r,4R*)-4-methoxycyclohexyl)quinoline-4-carboxamide]
6.40	–	N#C[C@@H]1CSCN1C(=O)CNC(=O)c1ccnc2ccc(OCC3CC3)cc12 [Example 5, (R)—N-(2-(4-Cyanothiazolidin-3-yl)-2-oxoethyl)-6-(cyclopropyl-methoxy)quinoline-4-carboxamide]
7.49	–	N#CCOc1ccc2nccc(C(=O)NCC(=O)N3CSC[C@H]3C#N)c2c1 [Example 10, (R)-6-(Cyanomethoxy)-N-(2-(4-cyanothiazolidin-3-yl)-2-oxoethyl)quinoline-4-carboxamide]
6.54	–	CC(F)(F)COc1ccc2nccc(C(=O)NCC(=O)N3CSC[C@H]3C#N)c2c1 [Example 11, (R)—N-(2-(4-Cyanothiazolidin-3-yl)-2-oxoethyl)-6-(2,2-difluoropropoxy)quinoline-4-carboxamide]
6.00	9.48	N#C[C@@H]1CSCN1C(=O)CNC(=O)c1ccnc2ccc(CN3CCOCC3)cc12 [Example 24, (R)—N-(2-(4-Cyanothiazolidin-3-yl)-2-oxoethyl)-6-(morpholino-methyl)quinoline-4-carboxamide]
6.85	–	CCOCc1ccc2nccc(C(=O)NCC(=O)N3CSC[C@H]3C#N)c2c1 [Example 27, (R)—N-(2-(4-cyanothiazolidin-3-yl)-2-oxoethyl)-6-(ethoxymethyl)-quinoline-4-carboxamide]
6.04	9.40	COCCOCc1ccc2nccc(C(=O)NCC(=O)N3CSC[C@H]3C#N)c2c1 [Example 31, (R)—N-(2-(4-Cyanothiazolidin-3-yl)-2-oxoethyl)-6-((2-methoxyethoxy)-methyl)quinoline-4-carboxamide]
6.77	–	N#C[C@@H]1CSCN1C(=O)CNC(=O)c1ccnc2ccc(COCC(F)F)cc12 [Example 36, (R)—N-(2-(4-Cyanothiazolidin-3-yl)-2-oxoethyl)-6-((2,2-difluoroethoxy)methyl)quinoline-4-carboxamide]
6.77	–	N#C[C@@H]1CSCN1C(=O)CNC(=O)c1ccnc2ccc(COC3CC3)cc12 [Example 37, (R)—N-(2-(4-Cyanothiazolidin-3-yl)-2-oxoethyl)-6-(cyclopropoxy-methyl)quinoline-4-carboxamide]
7.19	9.85	N#C[C@@H]1CSCN1C(=O)CNC(=O)c1ccnc2ccc(C3(c4ncccc4F)CC3)cc12 [Example 44, (R)—N-(2-(4-Cyanothiazolidin-3-yl)-2-oxoethyl)-6-(1-(3-fluoropyridin-2-yl)cyclopropyl)quinoline-4-carboxamide]
6.89	–	Cc1cc(C2(c3ccc4nccc(C(=O)NCC(=O)N5CSC[C@H]5C#N)c4c3)CC2)on1 [Example 50, (R)—N-(2-(4-Cyanothiazolidin-3-yl)-2-oxoethyl)-6-(1-(3-methylisoxazol-5-yl)cyclopropyl)quinoline-4-carboxamide]
6.30	–	N#C[C@@H]1CSCN1C(=O)CNC(=O)c1ccnc2ccc(CC3CCOCC3)cc12 [Example 56, (R)—N-(2-(4-Cyanothiazolidin-3-yl)-2-oxoethyl)-6-((tetrahydro-2H-pyran-4-yl)methyl)quinoline-4-carboxamide]
6.10	–	C#CC1(c2ccc3nccc(C(=O)NCC(=O)N4CSC[C@H]4C#N)c3c2)CCOCC1 [Example 57, (R)—N-(2-(4-Cyanothiazolidin-3-yl)-2-oxoethyl)-6-(4-ethynyl-tetrahydro-2H-pyran-4-yl)quinoline-4-carboxamide]
6.80	–	CCCOc1ccc2nccc(C(=O)NCC(=O)N3CSC[C@H]3C#N)c2c1 [Example 73, (R)—N-(2-(4-Cyanothiazolidin-3-yl)-2-oxoethyl)-6-propoxyquinoline-4-carboxamide]
7.08	–	N#C[C@@H]1CSCN1C(=O)CNC(=O)c1ccnc2ccc(OCCF)cc12 [Example 74, (R)—N-(2-(4-Cyanothiazolidin-3-yl)-2-oxoethyl)-6-(2-fluoroethoxy)-quinoline-4-carboxamide]
7.34	–	N#C[C@@H]1CSCN1C(=O)CNC(=O)c1ccnc2ccc(C3(F)CCC3)cc12 [Example 75, (R)—N-(2-(4-Cyanothiazolidin-3-yl)-2-oxoethyl)-6-(1-fluoro-cyclobutyl)quinoline-4-carboxamide]
7.21	–	COCCCc1ccc2nccc(C(=O)NCC(=O)N3CSC[C@H]3C#N)c2c1 [Example 81, (R)—N-(2-(4-cyanothiazolidin-3-yl)-2-oxoethyl)-6-(3-methoxypropyl)quinoline-4-carboxamide]
7.32	–	COCCc1ccc2nccc(C(=O)NCC(=O)N3CSC[C@H]3C#N)c2c1 [Example 82, (R)—N-(2-(4-cyanothiazolidin-3-yl)-2-oxoethyl)-6-(2-methoxyethyl)quinoline-4-carboxamide]
